From PubChem BioAssay AID1648 (Sanford-Burnham Center for Chemical Genomics, 2009) come the findings set out here.

The structures appear in SMILES notation. Calls of active or inactive are those of the source. The rule behind the calls is not given here. Some results are limits rather than exact numbers.

The target of this experiment is Serine/threonine-protein kinase mTOR (Homo sapiens) (UniProt P42345). Briefly: binders of mTOR FRB domain, biophysical, NMR (AID 1648). As to conditions: NMR binding to FRB domain, chemical shift.
Sequence of Serine/threonine-protein kinase mTOR (Homo sapiens) (P42345 2015-2114): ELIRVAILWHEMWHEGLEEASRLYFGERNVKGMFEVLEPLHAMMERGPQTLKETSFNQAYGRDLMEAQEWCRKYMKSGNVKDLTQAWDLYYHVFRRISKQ
For the molecule `CCc1ccc(C(=O)N2CCCC2)s1`, the Kd is > 4 mM (inactive). Turning to `CC(=O)O[C@@H]1CC2C(C)(C)[C@H](O)C=C[C@]2(C)C2CC[C@@]3(C)[C@H](c4ccoc4)OC(=O)C4OC43[C@@]21C` (stereo partly drawn), the Kd was > 4 mM (inactive). For the molecule `COc1ccccc1NC(=O)c1ccc(C)s1`, the Kd is > 4 mM (inactive). Consider `O=C(O)CN(CCCc1ccccc1)CC(=O)O`, for which the Kd is > 4 mM (inactive). For the molecule `COc1ccccc1NC(=O)c1cc[n+]([O-])cc1`, the Kd was > 4 mM (inactive). Turning to `Nc1ccc2c(C(F)(F)F)cc(=O)oc2c1`, the Kd is > 4 mM (inactive). Take `CCNC(=S)N1CCCC(C(N)=O)C1` (stereo not drawn): the Kd was > 4 mM (inactive).

Regarding `Nc1cccc(S(N)(=O)=O)c1`, the Kd is > 4 mM (inactive).

Take `CN(Cc1nc2ccccc2n1C)S(C)(=O)=O`: the Kd is > 4 mM (inactive). For the molecule `Cc1c(C(=O)Nc2cnccn2)oc2ccccc12`, the Kd was > 4 mM (inactive). As to `O=C1CN(C(=O)c2ccccc2)c2ccccc2N1`, the Kd was > 4 mM (inactive). With `CN1C(=O)CC(=O)N(C)c2ccccc21`, the Kd is > 4 mM (inactive). `NC(CSCSCC(N)C(=O)O)C(=O)O` (stereo not drawn): the Kd was > 4 mM (inactive).

Take `CC(=O)Nc1cc(C(F)(F)F)ccc1N1CCOCC1`: the Kd was > 4 mM (inactive). On to `O=C1CCCC2C3CC(CN12)[C@@H]1CCCCN1C3` (stereo partly drawn), for which the Kd was > 4 mM (inactive). Regarding `CC(C)NC(=S)NCc1cnn(C)c1`, the Kd is > 4 mM (inactive). For `O=C(Nc1nnc(-c2cccnc2)o1)c1ccccc1F`, the Kd was > 4 mM (inactive). With `Cc1noc(C)c1C(=O)Nc1sc(C)c(C)c1C#N`, the Kd is > 4 mM (inactive). On to `NCc1ccc2c(c1)OCCCO2`, for which the Kd is > 4 mM (inactive).

In the case of `CC1(C)O[C@H]2[C@H](O)C[C@](O)(C(N)=O)C[C@H]2O1`, the Kd is > 4 mM (inactive). `NCCCCNCCCN`: the Kd is > 4 mM (inactive). Turning to `CC(=O)O[C@@H]1CC2C(C)(C)[C@H](O)C=C[C@]2(C)C2CC[C@]3(C)C(=CC(=O)O[C@H]3c3ccoc3)[C@@]21C` (stereo partly drawn), the Kd is > 4 mM (inactive). Turning to `O=c1sc2ccccc2n1CN1CCOCC1`, the Kd is > 4 mM (inactive).

Consider `Cc1nnc(SCC(=O)Nc2ccccc2)[nH]c1=O`, for which the Kd was > 4 mM (inactive). In the case of `Cn1ncc(NC(=O)Nc2ccc(F)cc2F)c1C(N)=O`, the Kd is > 4 mM (inactive). The result for `NC12CC3CC(C1)CC(CC(=O)O)(C3)C2` reads > 4 mM (inactive); that for `Cc1nn(CC(=O)Nc2ccccn2)c(=O)c2ccccc12`, > 4 mM (inactive). Take `CC(=O)Cc1nsc(NC(=O)c2ccc(C)cc2)n1`: the Kd was > 4 mM (inactive). As to `CC1CN(Cc2ccccn2)CCC1=O` (stereo not drawn), the Kd was > 4 mM (inactive). Consider `Cc1cccc(N2CCN(C(=O)c3ccncc3)CC2)c1C`, for which the Kd was > 4 mM (inactive).

Take `NC(=O)Cn1cnc2c(cnn2-c2ccccc2)c1=O`: the Kd is > 4 mM (inactive).

Regarding `COC1C(O)C(O[C@H]2CC[C@]3(C=O)C4C(CC[C@]3(O)C2)[C@@]2(O)CC[C@H](C3=CC(=O)OC3)[C@@]2(C)C[C@H]4OC(C)=O)OC(C)C1OC(C)=O` (stereo partly drawn), the Kd was > 4 mM (inactive). The result for `S=C(NC1=NCCS1)Nc1ccccc1` reads > 4 mM (inactive); that for `CN1CCN(c2ccc(N)cc2)CC1`, > 4 mM (inactive). `Clc1ccccc1-c1nc(-c2cccnc2)no1`: the Kd was > 4 mM (inactive). `C=C[C@@H](C1=CC(=O)C(OC)=C(OC)C1=O)c1ccccc1`: the Kd was > 4 mM (inactive).

Regarding `COc1ccc(-c2nc(C)sc2CC(=O)O)cc1`, the Kd is > 4 mM (inactive). On to `COc1ccc2nc(SCC(N)=O)[nH]c2c1`, for which the Kd was > 4 mM (inactive). In the case of `O=C(c1cnsn1)N1CCN(c2ccccn2)CC1` it was > 4 mM (inactive); in that of `NC1=C([N+](=O)[O-])C(=O)c2ccccc21`, > 4 mM (inactive); in that of `Cc1nn(C)c(C)c1C(=O)O`, > 4 mM (inactive).

As to `Cc1cc(C)nc(N2CC(=O)N(C)C2=N)n1`, the Kd is > 4 mM (inactive). Take `COc1ccc2c(C)cc(=O)oc2c1`: the Kd is > 4 mM (inactive). `Nc1nnc(SCc2ccc(F)cc2Cl)s1`: the Kd was > 4 mM (inactive). Regarding `COc1ccc(/C=C2/N=C(N)SC2=O)cc1`, the Kd is > 4 mM (inactive). For the molecule `Cc1[nH]c2ccccc2c(=O)c1CO`, the Kd is > 4 mM (inactive). Take `Cc1nn(-c2ccccc2)nc1CO`: the Kd is > 4 mM (inactive). On to `NC(=O)C1CCN(CN2C(=O)c3ccccc3C2=O)CC1`, for which the Kd was > 4 mM (inactive). Take `N#Cc1cnn2c(C(F)(F)F)cc(C(F)(F)F)nc12`: the Kd was > 4 mM (inactive). Take `O=C1CC(=O)N(c2cccc(Cl)c2)N1`: the Kd was > 4 mM (inactive). In the case of `O=C(O)/C=C/C(=O)Nc1ccccc1C(F)(F)F` it was > 4 mM (inactive); in that of `COC(=O)c1ccc(N2CCCC2)nc1`, > 4 mM (inactive). For the molecule `O=C(Oc1ccc2c(c1)CCC2)N1CCOCC1`, the Kd was > 4 mM (inactive). Regarding `O=C(O)CCN1CCc2ccccc2C1c1ccncc1` (stereo not drawn), the Kd is > 4 mM (inactive). `S=C(c1ccc2c(c1)OCO2)N1CCCC1`: the Kd is > 4 mM (inactive). In the case of `Nc1cccc(-n2cnnn2)c1` it was > 4 mM (inactive); in that of `CC(C)C(=O)NC(=S)N1CCOCC1`, > 4 mM (inactive); in that of `COc1c(C)c2c(c(O)c1C/C=C(\C)CCC(=O)O)C(=O)OC2`, > 4 mM (inactive). Turning to `CC(=O)c1cc(CN2C(=O)c3ccccc3C2=O)cs1`, the Kd is > 4 mM (inactive). `COC(=O)c1ccc2nsnc2c1`: the Kd was > 4 mM (inactive). For `CCOc1cc(S(=O)(=O)N2CCOCC2)ccc1F`, the Kd was > 4 mM (inactive).

Take `Cn1c(=O)cc(N2CCCCC2)[nH]c1=O`: the Kd was > 4 mM (inactive). Regarding `c1ccc(-c2csc(Nc3cccnc3)n2)nc1`, the Kd is > 4 mM (inactive).

With `NC(=NCCC[C@H](N)C(=O)O)NC(CCC(=O)O)C(=O)O` (stereo partly drawn), the Kd is > 4 mM (inactive). As for `O=C(Cc1ccccc1)Nc1c[nH]c(=O)[nH]c1=O`, the Kd is > 4 mM (inactive). `CCOC(=O)c1c(C)nc2ccccn12`: the Kd is > 4 mM (inactive). As to `Nc1ccccc1C(=O)N1CCOCC1`, the Kd was > 4 mM (inactive). Turning to `c1cnc(N2CCSCC2)nc1`, the Kd was > 4 mM (inactive). Regarding `Cc1cc(C)n(CCC(=O)O)n1`, the Kd was > 4 mM (inactive). The result for `COc1c(-c2coc3cc4c(cc3c2=O)CC(OC(C)=O)C(C)(C)O4)ccc2c1C=CC(C)(C)O2` (stereo not drawn) reads > 4 mM (inactive); that for `O=c1c2ccccc2nc2n1CCC2O` (stereo not drawn), > 4 mM (inactive); that for `Cc1nnc(SCC(=O)NCc2ccccc2)[nH]c1=O`, > 4 mM (inactive). Take `Cn1nc(C(=O)N2CCOCC2)c2ccccc2c1=O`: the Kd was > 4 mM (inactive). The result for `NS(=O)(=O)c1ccc(NC(=O)C(F)(F)F)cc1` reads > 4 mM (inactive); that for `Cn1c(=O)n(C)c2cc(C(N)=O)ccc21`, > 4 mM (inactive); that for `O=C1CC(=O)N(c2ccccc2)C(=O)N1`, > 4 mM (inactive). As to `O=C(O)C1CC(=O)N(Cc2ccc(F)cc2)C1` (stereo not drawn), the Kd is > 4 mM (inactive). Regarding `COc1ccc(-c2nc(N)n(C(C)=O)n2)cc1`, the Kd is > 4 mM (inactive). Take `Cc1cc(Cl)ccc1NC(=O)C(N)=O`: the Kd was > 4 mM (inactive). The result for `Cc1onc(-c2ccc(F)cc2)c1C(=O)O` reads > 4 mM (inactive); that for `Cc1ccc(/C=N/n2c(C)nnc2C)cc1`, > 4 mM (inactive); that for `O=S1(=O)NC(=NCc2ccccc2)c2ccccc21`, > 4 mM (inactive). Regarding `NN1C(=O)/C(=C/c2ccc(O)c(O)c2)SC1=S`, the Kd is > 4 mM (inactive).

With `COc1cc2c(cc1OC)C1Cc3ccc(OC)c(OC)c3CN1CC2` (stereo not drawn), the Kd was > 4 mM (inactive). As to `CN1CCC(NC(=O)Cc2c(F)cccc2Cl)CC1`, the Kd was > 4 mM (inactive). Regarding `CC(=O)Nc1nnc(-c2ccncc2)s1`, the Kd is > 4 mM (inactive). Consider `CC[C@H]1CN2CCc3cc(OC)c(OC)cc3C2C[C@@H]1CC1NCCc2cc(OC)c(OC)cc21` (stereo partly drawn), for which the Kd was > 4 mM (inactive). For the molecule `NCCc1nc2ccccc2[nH]1`, the Kd was > 4 mM (inactive). With `CC1=C(/C=C/C(C)=C/C=C/C(C)=C/CO)C(C)(C)CCC1`, the Kd was > 4 mM (inactive). Turning to `Cc1ccc(SCc2nc(-c3cccnc3)no2)cc1`, the Kd was > 4 mM (inactive). Take `O=C(O)c1ccc(N2CCOCC2)nc1`: the Kd is > 4 mM (inactive). On to `O=C(O)Cn1cc(C(=O)C2CC2)c2ccccc21`, for which the Kd is > 4 mM (inactive).

Regarding `CCOC(=O)Cn1cnc2c1c(=O)[nH]c(=O)n2C`, the Kd is > 4 mM (inactive). The result for `Nc1ccccc1C(=O)CC(N)C(=O)O` (stereo not drawn) reads > 4 mM (inactive). For `Cc1nc2c(n1O)CCc1c-2no[n+]1[O-]`, the Kd is > 4 mM (inactive). With `CCN1CCN(CCCNc2ncnc3nc[nH]c23)CC1`, the Kd was > 4 mM (inactive). In the case of `CCCS(=O)(=O)N1CCN(c2ccccc2F)CC1` it was > 4 mM (inactive); in that of `c1ccc2[nH]c(SCc3cscn3)nc2c1`, > 4 mM (inactive). Turning to `CC(=O)c1ccc(Cc2cnc(N)s2)cc1`, the Kd was > 4 mM (inactive). Regarding `C#CCCCCCCCCCCCC(=O)CC(O)COC(C)=O` (stereo not drawn), the Kd was > 4 mM (inactive). As for `O=C(NCO)c1ccc([N+](=O)[O-])cc1`, the Kd is > 4 mM (inactive).

With `O=c1ccn(Cc2ccccc2)c(=O)n1Cc1ccccc1`, the Kd is > 4 mM (inactive). As for `CC(C)=CCCC1(C)C=Cc2c(O)c3c(c(CC=C(C)C)c2O1)OC12C(=CC4CC1C(C)(C)OC2(C/C=C(/C)C(=O)O)C4O)C3=O` (stereo not drawn), the Kd was > 4 mM (inactive).

One may read the Kd as the free concentration of one partner at which half of the binding sites on the other are occupied at equilibrium, for simple one-to-one binding.
